Experimental data taken from the supplement of paper PMC12592484.

Assays:
Experiment in all cases: drug sensitivity score (DSS2, normalised partial AUC of dose-response, 72 h CellTiter-Glo viability) (DSS (dimensionless)); higher = more sensitive (stronger growth inhibition / cytotoxicity); extreme values may be limits of the assay
[1] = test system: CAF#7 (primary prostate cancer-associated fibroblasts of myCAF-like type)
Method in brief: (§1)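 The drug sensitivity score reported here is a partial area under the fitted logistic dose–response curve, divided by the log of the curve's upper asymptote and computed in BREEZE; higher values denote greater sensitivity. Low-passage primary prostate cancer-associated fibroblasts, PF179T, WPMY-1, LNCaP and 22Rv1 cells were seeded into 384-well plates preloaded with compounds at five doses across a 10,000-fold range. CellTiter-Glo 2.0 luminescence gave viability at 72 h, scaled to vehicle and positive-control wells.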

[2] = test system: CAF#6 (primary prostate cancer-associated fibroblasts of iCAF-like type)
Method in brief: as §1

[3] = test system: CAF#4 (primary prostate cancer-associated fibroblasts of iCAF-like type)
Method in brief: as §1

[4] = test system: LNCAP
Method in brief: as §1

[5] = test system: CAF#1 (primary prostate cancer-associated fibroblasts of myCAF-like type)
Method in brief: as §1

[6] = test system: PF179T
Method in brief: as §1

[7] = test system: CAF#3 (primary prostate cancer-associated fibroblasts of myCAF-like type)
Method in brief: as §1

[8] = test system: 22Rv1
Method in brief: as §1

[9] = test system: CAF#2 (primary prostate cancer-associated fibroblasts of iCAF-like type)
Method in brief: as §1

[10] = test system: WPMY-1
Method in brief: as §1

[11] = test system: CAF#5 (primary prostate cancer-associated fibroblasts of myCAF-like type)
Method in brief: as §1

Compound | drug sensitivity score [1] | drug sensitivity score [2] | drug sensitivity score [3] | drug sensitivity score [4] | drug sensitivity score [5] | drug sensitivity score [6] | drug sensitivity score [7] | drug sensitivity score [8] | drug sensitivity score [9] | drug sensitivity score [10] | drug sensitivity score [11]
CNC(=O)c1ccc(N2C(=S)N(c3cnc(C#N)c(C(F)(F)F)c3)C(=O)C23CCC3)cc1F [Apalutamide] (tested concentration range 1-10000 nM) | 0 | 0.2 | 0 | 2.7 | 0.2 | 0.9 | 0.8 | 0 | 0.8 | 0 | 0.1
N#CC1(c2ccc(NC(=O)c3cccnc3NCc3ccncc3)cc2)CCCC1 [Apatinib] (tested concentration range 1-10000 nM) | 2.2 | 2.6 | 0 | 5.8 | 0 | 0 | 1.8 | 0 | 0 | 0 | 0
O=C(Nc1ccc(OC(F)(F)Cl)cc1)c1cnc(N2CC[C@@H](O)C2)c(-c2cc[nH]n2)c1 [Asciminib] (tested concentration range 0.1-1000 nM) | 0 | 0 | 0 | 0 | 0.5 | 0 | 0 | 0 | 0 | 0 | 0
CC(C)c1c(C(=O)Nc2ccccc2)c(-c2ccccc2)c(-c2ccc(F)cc2)n1CC[C@@H](O)C[C@@H](O)CC(=O)O [Atorvastatin] (tested concentration range 1-10000 nM) | 5.9 | 5.2 | 3.5 | 1.1 | 4.7 | 3 | 6.1 | 3.3 | 8.4 | 2.7 | 5.4
CC(=O)OC[C@H]1O[C@@H]([S-])[C@H](OC(C)=O)[C@@H](OC(C)=O)[C@@H]1OC(C)=O.CCP(CC)CC.[Au+] [Auranofin] (tested concentration range 0.2-2500 nM) | 7.2 | 5.4 | 3.3 | 13.1 | 3.7 | 0 | 5.1 | 5.7 | 5 | 5.2 | 3.5
Cc1nc2cccc(N)c2c(=O)n1C1CCC(=O)NC1=O (configuration not stated) [Avadomide] (tested concentration range 1-10000 nM) | 0 | 0 | 2.2 | 0 | 0 | 0.1 | 0.4 | 0 | 0 | 0 | 0
CNC(=O)c1ccccc1Sc1ccc2c(/C=C/c3ccccn3)n[nH]c2c1 [Axitinib] (tested concentration range 1-10000 nM) | 5.5 | 3.3 | 4.2 | 5.7 | 2.8 | 0.8 | 5.5 | 1.6 | 5.1 | 4.9 | 2
Nc1ncn([C@@H]2O[C@H](CO)[C@@H](O)[C@H]2O)c(=O)n1 [Azacitidine] (tested concentration range 1-10000 nM) | 3.2 | 2.2 | 2.3 | 2.4 | 2.3 | 2.6 | 1.8 | 2.8 | 3 | 2 | 0.5
Cc1cc(-c2nc(-c3ccc(OC(F)(F)F)cc3)no2)nn1Cc1ccnc(N2CCN(C3CC3)CC2)c1 [BAY 87-2243] (tested concentration range 0.1-1000 nM) | 0 | 0 | 0 | 24.8 | 0 | 26.4 | 0.5 | 19.8 | 1.6 | 23.2 | 0
O=C(Nc1cccc(Nc2ncc(Br)c(NCCc3cnc[nH]3)n2)c1)N1CCCC1 [BX-912] (tested concentration range 1-10000 nM) | 10 | 6.2 | 3.1 | 3.5 | 6.1 | 7.6 | 7.6 | 1.9 | 7.5 | 9.9 | 8.1
CCS(=O)(=O)N1CC(CC#N)(n2cc(-c3ncnc4[nH]ccc34)cn2)C1 [Baricitinib] (tested concentration range 0.2-2500 nM) | 0 | 0 | 0 | 0 | 0 | 0 | 0 | 0 | 0 | 0 | 0
O=C(/C=C/c1cccc(S(=O)(=O)Nc2ccccc2)c1)NO [Belinostat] (tested concentration range 1-10000 nM) | 6.6 | 6.8 | 10 | 19.5 | 10 | 9.8 | 4.8 | 19.6 | 12.3 | 18.5 | 8.6
Nc1nc(Nc2ccc3c(c2)CC[C@@H](N2CCCC2)CC3)nn1-c1cc2c(nn1)-c1ccccc1CCC2 [Bemcentinib] (tested concentration range 1-10000 nM) | 2.7 | 5.7 | 1.8 | 5.4 | 2.5 | 5 | 8.6 | 5 | 3.2 | 8.5 | 4.1
N#CC(c1ccnc(OCc2ccc(CN3CCOCC3)cc2)n1)c1nc2ccccc2s1 (configuration not stated) [Bentamapimod] (tested concentration range 1-10000 nM) | 0 | 0 | 3.4 | 5.2 | 1.7 | 0 | 0 | 1.8 | 2.6 | 2.8 | 0
C=C(c1ccc(C(=O)O)cc1)c1cc2c(cc1C)C(C)(C)CCC2(C)C [Bexarotene] (tested concentration range 1-10000 nM) | 1.2 | 0 | 3.7 | 0 | 4.7 | 10.2 | 0 | 1.6 | 10.1 | 2.1 | 3.8
CC(O)(CS(=O)(=O)c1ccc(F)cc1)C(=O)Nc1ccc(C#N)c(C(F)(F)F)c1 (configuration not stated) [Bicalutamide] (tested concentration range 1-10000 nM) | 0.5 | 1.1 | 0 | 2.3 | 1.7 | 0.2 | 1.4 | 0.5 | 1.5 | 0 | 1.2
CCNC(=O)CCC/C=C\C[C@@H]1[C@@H](/C=C/[C@@H](O)CCc2ccccc2)[C@H](O)C[C@@H]1O [Bimatoprost] (tested concentration range 0.6-5500 nM) | 0 | 0 | 0 | 0 | 0 | 0 | 0.1 | 0 | 0 | 0 | 0
Cn1cnc2c(F)c(Nc3ccc(Br)cc3F)c(C(=O)NOCCO)cc21 [Binimetinib] (tested concentration range 0.1-1000 nM) | 0.2 | 0 | 0 | 0 | 0 | 0 | 0 | 8.7 | 2.2 | 0.9 | 0.8
Cc1sc2c(c1C)C(c1ccc(Cl)cc1)=N[C@@H](CC(=O)Nc1ccc(O)cc1)c1nnc(C)n1-2 [Birabresib] (tested concentration range 1-10000 nM) | 3 | 5.1 | 3.4 | 19.8 | 9.4 | 2.8 | 11.8 | 13.4 | 9.9 | 11.9 | 3.1
CC[C@H](NC(=O)[C@H](C)NC)C(=O)N1C[C@@H](O)C[C@H]1Cc1c(-c2[nH]c3cc(F)ccc3c2C[C@@H]2C[C@H](O)CN2C(=O)[C@H](CC)NC(=O)[C@H](C)NC)[nH]c2cc(F)ccc12 [Birinapant] (tested concentration range 0.1-1000 nM) | 0 | 0.8 | 0 | 0.1 | 0 | 0 | 0 | 0 | 0 | 0 | 0
Cc1c(N)nc([C@H](CC(N)=O)NC[C@H](N)C(N)=O)nc1C(=O)N[C@H](C(=O)N[C@H](C)[C@@H](O)[C@H](C)C(=O)N[C@H](C(=O)NCCc1nc(-c2nc(C(=O)NCCC[S+](C)C)cs2)cs1)[C@@H](C)O)[C@@H](OC1OC(CO)C(O)C(O)C1OC1OC(CO)C(O)C(OC(N)=O)C1O)c1cnc[nH]1 (some centres not stated) [Bleomycin] (tested concentration range 1-10000 nM) | 9.7 | 7.7 | 5.7 | 7.5 | 0.6 | 3.3 | 5.7 | 3.7 | 3.9 | 0.4 | 3.2
CC(C)C[C@H](NC(=O)[C@H](Cc1ccccc1)NC(=O)c1cnccn1)B(O)O [Bortezomib] (tested concentration range 0.1-1000 nM) | 24.3 | 23.7 | 20 | 28.8 | 23.9 | 20.9 | 26.9 | 24.9 | 30.1 | 30.6 | 28.1
